In US8633154B2, “Cyclodepsipeptides with antineoplastic activity and methods of using to inhibit cancer and microbial growth” (Arizona Board of Regents, a body corporate of the State of …, priority 2007, dated 2014):
Values after ≈ are worked out from the molar mass of the structure shown.

Legend:
Format in all cases: cell-based
DU-145 = assay: Human cancer cell line growth inhibition, DU-145
KM20L2 = assay: Human cancer cell line growth inhibition, KM20L2
[1] = system: Micrococcus luteus Presque Isle 456; assay: Broth microdilution susceptibility assay, Micrococcus luteus
From the text: (§1) Cyclodepsipeptides 1 and 2 were screened against the bacteria Stenotrophomonas maltophilia ATCC 13637, Micrococcus luteus Presque Isle 456, Staphylococcus aureus ATCC 29213, Escherichia coli ATCC 25922, Enterobacter cloacae ATCC 13047, Enterococcus faecalis ATCC 29212, Streptococcus pneumoniae ATCC 6303, Neisseria gonorrhoeae ATCC 49226, and the fungi Candida albicans ATCC 90028 and Cryptococcus neoformans ATCC 90112, according to established broth microdilution susceptibility assays.^15,16 Owing to a paucity of material, compound 2 was tested against S. maltophilia, M. luteus, S. aureus, E. coli and C. albicans only. Compounds were reconstituted in a small volume of sterile DMSO and diluted in the appropriate media immediately prior to susceptibility experiments. The minimum inhibitory concentration was defined as the lowest concentration of compound that inhibited all visible growth of the test organism (optically clear). Assays were repeated on separate days.

MCF-7 = assay: Human cancer cell line growth inhibition, MCF-7
NCI-H460 = assay: Human cancer cell line growth inhibition, NCI-H460
BXPC-3 = assay: Human cancer cell line growth inhibition, BXPC-3
SF268 = assay: Human cancer cell line growth inhibition, SF268
[2] = system: Enterococcus faecalis ATCC 29212; assay: Broth microdilution susceptibility assay, Enterococcus faecalis; conditions: ATCC29212, read-out: minimum inhibitory concentration [MIC]
From the text: as §1

[3] = system: Cryptococcus neoformans ATCC 90112; assay: Broth microdilution susceptibility assay, Cryptococcus neoformans
From the text: as §1

minimum inhibitory concentration [MIC] [1] [ng/mL] | Compound | Inhibition of Human Cancer Cell Lines (GI50) DU-145 (DU-145) [ng/mL] | Inhibition of Human Cancer Cell Lines (GI50) KM20L2 (KM20L2) [ng/mL] | Inhibition of Human Cancer Cell Lines (GI50) MCF-7 (MCF-7) [ng/mL] | Inhibition of Human Cancer Cell Lines (GI50) NCI-H460 (NCI-H460) [ng/mL] | Inhibition of Human Cancer Cell Lines (GI50) BXPC-3 (BXPC-3) [ng/mL] | Inhibition of Human Cancer Cell Lines (GI50) SF268 (SF268) [ng/mL] | GI50 (DU-145; Homo sapiens, read-out: Inhibition of Human Cancer Cell Lines (GI50) DU-145) [ng/mL] | GI50 (KM20L2; Homo sapiens, KM-20L2, read-out: Inhibition of Human Cancer Cell Lines (GI50) KM20L2) [ng/mL] | MIC [2] [ng/mL] | GI50 (MCF-7; Homo sapiens, MCF7, read-out: Inhibition of Human Cancer Cell Lines (GI50) MCF-7) [ng/mL] | MIC ([3]; ATCC90112, read-out: minimum inhibitory concentration [MIC]) [ng/mL] | GI50 (NCI-H460; Homo sapiens, read-out: Inhibition of Human Cancer Cell Lines (GI50) NCI-H460) [ng/mL] | GI50 (BXPC-3; Homo sapiens, read-out: Inhibition of Human Cancer Cell Lines (GI50) BXPC-3) [ng/mL] | GI50 (SF268; Homo sapiens, SF-268, read-out: Inhibition of Human Cancer Cell Lines (GI50) SF268) [ng/mL] | minimum inhibitory concentration [MIC] ([3]; broth microdilution) [ng/mL]
64000 (≈ 87200 nM) | CC[C@H](C)[C@@H]1OC(=O)[C@H](C)OC(=O)[C@@H](NC(=O)c2cccc(NC=O)c2O)[C@@H](C)OC(=O)[C@H](C(C)C)OC(=O)C(C)(C)C(=O)[C@H](CC(C)C)NC1=O [Cyclodepsipeptide 2] | <0.1 | 0.58 | 0.62 | 0.63 | 1200 | 16 | – | – | – | – | – | – | – | – | –
– | CCC(C)[C@@H]1OC(=O)[C@H](C)OC(=O)[C@@H](NC(=O)c2cccc(N)c2O)[C@@H](C)OC(=O)[C@H](CC(C)C)OC(=O)C(C)(C)C(=O)[C@H](CC(C)C)NC1=O (stereo partly shown) [Cyclodepsipeptide 3, Kitastatin 1] | – | – | – | – | – | – | 2.6 (≈ 3.61 nM) | 2.4 (≈ 3.33 nM) | 64000 (≈ 88900 nM) | 4 (≈ 5.56 nM) | 64000 (≈ 88900 nM) | < 1 | 6.6 (≈ 9.17 nM) | 3.5 (≈ 4.86 nM) | –
– | CCC(C)[C@@H]1OC(=O)[C@H](C)OC(=O)[C@@H](NC(=O)c2cccc(NC=O)c2O)[C@@H](C)OC(=O)[C@H](CC(C)C)OC(=O)C(C)(C)C(=O)[C@H](CC(C)C)NC1=O (stereo partly shown) [Cyclodepsipeptide 1, respirantin] | 0.18 | 0.6 | 0.6 | 0.6 | 470 | 1.6 | – | – | – | – | – | – | – | – | 2000 (≈ 2670 nM)
